# Read-outs that look alike come from different tables or passages of the source. Ends that are not written are not given here.
# How the values were obtained:
# [1] = tested on: Acinetobacter baumanii ATCC 17978; type: cell-based; settings: ATCC 17978, 20 h
# Description: (§1) The minimal inhibitory concentration (MIC) of all screened peptides were determined by the microbroth dilution method. Bacterial strains included four Gram‐negative strains (Acinetobacter baumanii ATCC 17978, Acinetobacter baumanii ATCC 19606, Escherichia coli ATCC 25922, Escherichia coli DH5 α ) and seven Gram‐positive strains (Staphylococcus aureus ATCC 25923, Staphylococcus aureus ATCC 6538, Bacillus subtilis ATCC 6633, Enterococcus faecalis ATCC 29212, Micrococcus luteus CMCC(B) 28001, Staphylococcus capitis ATCC 27842, Staphylococcus hominis ATCC 27844). Bacteria were incubated overnight at 37 °C and diluted to 5 × 10^5 cfu·mL^−1. Then 99 µL bacterial suspension was added into each well of a 96‐well plate. Peptides were dissolved in cation adjusted Mueller‐Hinton (CAMHB) medium at an initial concentration of 1 mg·mL^−1 and then diluted in twofold gradient concentrations, ranging from 0.125 to 128 µg·mL^−1 with 1 µL in each well. The plate was placed in incubator for 20 h at 37 °C. The lowest concentration of peptide causing no observed bacteria grow was its MIC.
# [2] = tested on: Acinetobacter baumanii ATCC 19606; type: cell-based; settings: ATCC 19606, 20 h
# Description: as §1
# [3] = tested on: Bacillus subtilis ATCC 6633; type: cell-based; settings: ATCC 6633, 20 h
# Description: as §1
# [4] = tested on: Enterococcus faecalis ATCC 29212; type: cell-based; settings: ATCC 29212, 20 h
# Description: as §1
# [5] = tested on: Escherichia coli ATCC 25922; type: cell-based; settings: ATCC 25922, 20 h
# Description: as §1
# [6] = tested on: Escherichia coli DH5α; type: cell-based; settings: 20 h
# Description: as §1
# [7] = tested on: Micrococcus luteus CMCC(B) 28001; type: cell-based; settings: CMCC(B) 28001, 20 h
# Description: as §1
# [8] = tested on: Staphylococcus aureus ATCC 25923; type: cell-based; settings: ATCC 25923, 20 h
# Description: as §1
# [9] = tested on: Staphylococcus aureus ATCC 6538; type: cell-based; settings: ATCC 6538, 20 h
# Description: as §1
# [10] = tested on: Staphylococcus capitis ATCC 27842; type: cell-based; settings: ATCC 27842, 20 h
# Description: as §1
# [11] = tested on: Staphylococcus hominis ATCC 27844; type: cell-based; settings: ATCC 27844, 20 h
# Description: as §1
# [12] = synthesis report, ref ChinaPeptides Co., Ltd. quality reports, Figure S7, cited from earlier work
# [13] = tested on: HEK293T cells; test: Cytotoxicity, Alamar Blue assay; type: cell-based
# Description: Cytotoxicity was evaluated using the Alamar Blue assay on HEK293T cells. HEK293T cells were cultured in DMEM supplemented with 10% FBS and incubated at 37 °C with 5% CO2. Amphotericin B and staurosporine were used as controls. Peptide solutions were diluted in PBS (pH 7.4) with final concentrations ranging from 1 to 128 µg·mL^−1. The cells were treated with peptides for 72 h. After that, 10 µL Alamar Blue was added into each well. The plate was incubated for 4 hours under dark condition and detected the absorbance at 570 nm. The inhibition rate of cell growth was calculated via (OD570, peptide ‐ OD570, PBS) / (OD570, staurosporine ‐ OD570, PBS). The half maximal cytotoxic concentration (CC50) was fitted with GraphPad Prism. Each test was conducted in triplicate.
Molecule,MIC A. baumannii ATCC 17978 [1],MIC A. baumannii ATCC 19606 [2],MIC B. subtilis ATCC 6633 [3],MIC E. faecalis ATCC 29212 [4],MIC E. coli ATCC 25922 [5],MIC E. coli DH5α [6],MIC M. luteus CMCC(B) 28001 [7],MIC S. aureus ATCC 25923 [8],MIC S. aureus ATCC 6538 [9],MIC S. capitis ATCC 27842 [10],MIC S. hominis ATCC 27844 [11],Solubility ([12]; in 15%ACN/85%H2O),Solubility ([12]; in 25%ACN/75%H2O),"Cytotoxicity CC50 HEK293T ([13]; HEK293T, Alamar Blue, 72 h treatment, 1 to 128 µg/mL, absorbance 570 nm, triplicate)",Cytotoxicity CC50 HEK293T [13]
IYKILQLFHKRFKKGFFG [Peptide 1304],16 µg/mL,16 µg/mL,4 µg/mL,128 µg/mL,64 µg/mL,32 µg/mL,16 µg/mL,128 µg/mL,16 µg/mL,4 µg/mL,4 µg/mL,1000 µg/mL,–,–,–
KLAKLLKLLLWAQNELDQKK [Peptide 623],32 µg/mL,32 µg/mL,8 µg/mL,–,128 µg/mL,128 µg/mL,64 µg/mL,128 µg/mL,32 µg/mL,64 µg/mL,16 µg/mL,1000 µg/mL,–,–,–
KKIASIIYAHVKALRARKILDNLKRLAANRP [Peptide 615],32 µg/mL,16 µg/mL,16 µg/mL,–,64 µg/mL,8 µg/mL,64 µg/mL,–,–,16 µg/mL,8 µg/mL,1000 µg/mL,–,–,–
AKLVALVNKFIGYLKQNTYC [Peptide 201],–,–,32 µg/mL,–,–,–,–,–,–,–,–,–,1000 µg/mL,–,–
"CN[C@@H]1C[C@H]2O[C@@](C)([C@@H]1OC)n1c3ccccc3c3c4c(c5c6ccccc6n2c5c31)C(=O)NC4 [Staurospotine, Staurosporine]",–,–,–,–,–,–,–,–,–,–,–,–,–,0.26 µg/mL,–
GPIHRLINPFFNLLQGIFTN [Peptide 98],–,–,32 µg/mL,–,–,–,128 µg/mL,–,–,–,–,–,1000 µg/mL,–,–
KVKVLIIRKLTRHIAKLKSKK [Peptide 58],–,128 µg/mL,8 µg/mL,128 µg/mL,–,–,8 µg/mL,–,–,4 µg/mL,2 µg/mL,1000 µg/mL,–,–,–
C[C@@H]1[C@H](O)[C@@H](C)/C=C/C=C/C=C/C=C/C=C/C=C/C=C/[C@H](O[C@@H]2O[C@H](C)[C@@H](O)[C@H](N)[C@@H]2O)C[C@@H]2O[C@](O)(C[C@@H](O)C[C@@H](O)[C@H](O)CC[C@@H](O)C[C@@H](O)CC(=O)O[C@H]1C)C[C@H](O)[C@H]2C(=O)O [Amphotericin B],–,–,–,–,–,–,–,–,–,–,–,–,–,–,67.06 µg/mL
GFKSKLEQISGICRPLFAAMWK [Peptide 68],–,–,64 µg/mL,–,–,–,128 µg/mL,–,–,16 µg/mL,32 µg/mL,–,1000 µg/mL,–,> 128 µg/mL
